From article PMC4490768 (Cellular signalling, 2011)

Target: T1, ALK2ca T283S (constitutively active ALK2) (Homo sapiens, UniProt Q04771, Q207D/T283S)
T1 sequence (Q04771 21-509 Q207D/T283S): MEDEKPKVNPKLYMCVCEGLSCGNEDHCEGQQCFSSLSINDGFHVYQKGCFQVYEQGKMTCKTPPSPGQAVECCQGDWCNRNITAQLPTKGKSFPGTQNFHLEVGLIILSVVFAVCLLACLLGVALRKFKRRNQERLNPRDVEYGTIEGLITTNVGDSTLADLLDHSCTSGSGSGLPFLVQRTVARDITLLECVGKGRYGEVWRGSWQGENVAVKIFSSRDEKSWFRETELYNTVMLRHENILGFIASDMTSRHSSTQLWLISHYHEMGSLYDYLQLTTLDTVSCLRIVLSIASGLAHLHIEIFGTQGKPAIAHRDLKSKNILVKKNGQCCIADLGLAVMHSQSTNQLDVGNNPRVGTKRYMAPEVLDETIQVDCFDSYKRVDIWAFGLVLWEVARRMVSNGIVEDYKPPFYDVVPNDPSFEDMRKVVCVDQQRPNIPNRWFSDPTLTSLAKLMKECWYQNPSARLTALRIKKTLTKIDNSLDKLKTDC
Assay: BRE2-luc luciferase reporter in NIH-3T3 cells expressing ALK2ca T283S
Assay type: cell-based

- EC50: 2500 nM
Compound: NC(=O)c1ccc(-c2nc(-c3ccc4c(c3)OCO4)c(-c3ccccn3)[nH]2)cc1 [SB431542]
